From patent US9834548B2, “Pyridazine compounds as JAK inhibitors” (Portola Pharmaceuticals, Inc., priority 2014, dated 2017) come the findings set out here.

What all share (format): biochemical
One assay addresses JAK1 (Homo sapiens (Human), UniProt P23458). In words: Purified kinase assay (Z'-LYTE), JAK1. As to conditions: Table 1; read-out: JAK1 IC50. The method, then: (§1) JAK and TYK2 tyrosine phosphorylation activity is measured using the Z′-LYTE™ Technology developed by Invitrogen Corporation (Carlsbad, Calif.). For JAK1, JAK2 and JAK3 the Z′-LYTE™ Kinase Assay Kit-Tyr6 Peptide (part number PV4122) was used. For TYK2 the Z′-LYTE™ Kinase Assay Kit-Tyr6 Peptide (part number PV3192) was used. The Z′-LYTE™ biochemical assay employs a fluorescence resonance energy transfer (FRET) coupled-enzyme format and is based on the differential sensitivity of phosphorylated and non-phosphorylated peptides to proteolytic cleavage. The assay uses a synthetic peptide substrate that is labeled with a donor fluorophore (coumarin) and an acceptor fluorophore (fluorescein) that make up a FRET pair. In the primary reaction (the Kinase Reaction), the kinase transfers the γ-phosphate of ATP to a single tyrosine residue on the substrate, while the presence of a kinase inhibitor in the primary reaction suppresses phosphorylation. In the secondary reaction (the Development Reaction), a site-specific protease (the Development Reagent) is added. The development buffer quenches the Kinase Reaction, while the protease recognizes and cleaves non-phosphorylated Z′-LYTE™ peptide substrate. Cleavage disrupts FRET between the donor and acceptor fluorophores on the non-phosphorylated substrate, while uncleaved, phosphorylated substrate maintains FRET.
(§2) To test the ability of candidate molecules to inhibit JAK tyrosine phosphorylation activity, molecules are reconstituted in 100% DMSO and serially diluted 1:10 in polypropylene v-bottom microtiter plates. The candidate molecules are then diluted 1:25 into kinase buffer and 2.5 μl transferred into duplicate wells of a 384 well low volume black microtiter assay plate (Corning, USA). The final DMSO concentration in the assay is 1%. The kinase reaction contains 2.5 μl of a candidate molecule, 5 μl of catalytic domain recombinant Kinase enzyme+Tyr peptide substrate (Invitrogen, CA) and ATP (Invitrogen, CA). The kinase reaction is allowed to proceed for 1 hour at room temperature. The protease reaction is initiated by the addition of Development Reagent (Invitrogen, CA). After 1 hour incubation at room temperature the fluorescence is measured using a FlexStation plate reader (Molecular Devices, Sunnyvale, Calif.). The reader settings used are as follows: Fluorescence mode, endpoint, top read, excitation 400 nm, emission 445 nm and 520 nm, Auto Cutoff 435 nm and 515 nm, PMT sensitivity high, 6 reads per well Inhibition of JAK activity is calculated as the percent phosphorylation of substrate in the presence of inhibitor compared to the percent phosphorylation of substrate in the absence of inhibitor. IC50's were derived using Xlfit 4.3 (IDBS, UK), 4 parameter logistic model 205: Y=(A+((B−A)/(1+((C/x)^D)))).

The target in the next assay is JAK2 (Homo sapiens (Human), UniProt O60674). In words: Purified kinase assay (Z'-LYTE), JAK2. As to conditions: Table 1; read-out: JAK2 IC50. The procedure: as §1, §2
Sequence of JAK2 (O60674 849-1124): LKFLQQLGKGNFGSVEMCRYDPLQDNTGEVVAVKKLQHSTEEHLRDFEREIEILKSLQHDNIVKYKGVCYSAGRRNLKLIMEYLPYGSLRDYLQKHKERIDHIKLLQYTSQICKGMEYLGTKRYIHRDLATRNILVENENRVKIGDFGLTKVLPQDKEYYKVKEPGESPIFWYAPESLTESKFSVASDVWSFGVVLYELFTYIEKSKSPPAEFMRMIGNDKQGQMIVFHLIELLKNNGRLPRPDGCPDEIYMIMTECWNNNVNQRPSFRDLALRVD
For the next assay, the target named is JAK3 (Homo sapiens (Human), UniProt P52333). In words: Purified kinase assay (Z'-LYTE), JAK3. As to conditions: Table 1; read-out: JAK3 IC50. The procedure: as §1, §2
Sequence of JAK3 (P52333 822-1111): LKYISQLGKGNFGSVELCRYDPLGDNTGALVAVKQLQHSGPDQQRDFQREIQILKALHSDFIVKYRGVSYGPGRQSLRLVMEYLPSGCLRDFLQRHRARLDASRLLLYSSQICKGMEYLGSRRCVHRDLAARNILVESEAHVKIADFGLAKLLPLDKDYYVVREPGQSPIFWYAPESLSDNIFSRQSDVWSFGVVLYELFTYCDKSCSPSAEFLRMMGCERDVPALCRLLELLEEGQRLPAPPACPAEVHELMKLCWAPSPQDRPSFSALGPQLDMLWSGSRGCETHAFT

Sequence of JAK1 (P23458 875-1153): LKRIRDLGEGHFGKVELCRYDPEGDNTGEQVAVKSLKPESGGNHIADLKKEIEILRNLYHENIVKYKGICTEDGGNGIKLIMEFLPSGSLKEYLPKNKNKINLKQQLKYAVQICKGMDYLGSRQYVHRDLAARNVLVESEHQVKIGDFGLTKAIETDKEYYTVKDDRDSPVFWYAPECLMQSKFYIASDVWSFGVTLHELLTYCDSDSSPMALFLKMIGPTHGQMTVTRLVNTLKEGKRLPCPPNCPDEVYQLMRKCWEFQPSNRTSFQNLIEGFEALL

The term IC50 denotes the concentration that inhibits the measured activity by half. With `CS(=O)(=O)Cc1ccc(Nc2cc(NC3CCN(c4ccc(C#N)cn4)CC3)c(C(N)=O)nn2)cc1` [Compound 93], the IC50 at JAK1, at JAK2 and on JAK3 was 10 to 100 nM in each case.

With `NC(=O)c1nnc(Nc2ccc(N3CCS(=O)(=O)CC3)cc2)cc1NCc1cccc(F)c1` [Compound 94], the IC50 on JAK1 is over 1000 nM; on JAK2, 100 to 1000 nM; at JAK3 it was 1 to 10 nM.

Take `CC(C)(c1ccc(Nc2cc(NCc3cccc(F)c3)c(C(N)=O)nn2)cc1)S(C)(=O)=O` [Compound 95]: the figures for the IC50 on JAK1, on JAK2 and at JAK3 were over 1000 nM, 100 to 1000 nM and 10 to 100 nM, respectively.

As to `CC(c1ccc(Nc2cc(NCc3cccc(F)c3)c(C(N)=O)nn2)cc1)S(C)(=O)=O` (stereo not drawn) [Compound 96], the figures for the IC50 at JAK1, at JAK2 and on JAK3 were 100 to 1000 nM, 100 to 1000 nM and 10 to 100 nM, respectively.

For the compound `N#Cc1ccc(N2CCC(Nc3cc(Nc4cnccn4)nnc3C(N)=O)CC2)nc1` [Compound 97], the IC50 on JAK1, on JAK2 and on JAK3 was 1 to 10 nM in each case.

Consider `CS(=O)(=O)Cc1ccc(Nc2cc(NCc3cccc4ccsc34)c(C(N)=O)nn2)cc1` [Compound 100], for which the figures for the IC50 on JAK1, on JAK2 and at JAK3 were 100 to 1000 nM, 100 to 1000 nM and 1 to 10 nM, respectively.

For `CC(=O)N(C)c1ccc(Nc2cc(NCc3cccc(F)c3)c(C(N)=O)nn2)cc1` [Compound 101], the half-inhibitory concentration (IC50) was over 1000 nM at JAK1, 100 to 1000 nM at JAK2 and 100 to 1000 nM on JAK3.

As to `CN(c1ccc(Nc2cc(NCc3cccc(F)c3)c(C(N)=O)nn2)cc1)S(C)(=O)=O` [Compound 102], the values for the IC50 at JAK1, at JAK2 and at JAK3 were over 1000 nM, 100 to 1000 nM and 10 to 100 nM, respectively.

As to `CC(=O)N1CCN(c2ccc(Nc3cc(NCc4cc(-n5ccnc5)ccc4F)c(C(N)=O)nn3)cc2)CC1` [Compound 103], the results for the half-maximal inhibitory concentration (IC50) at JAK1, at JAK2 and on JAK3 were over 1000 nM, 100 to 1000 nM and 10 to 100 nM, respectively.

Regarding `CC(=O)N1CCN(c2ccc(Nc3cc(NCc4cc(-c5cccnc5)ccc4F)c(C(N)=O)nn3)cc2)CC1` [Compound 104], the IC50 at JAK1 is over 1000 nM; at JAK2, 100 to 1000 nM; on JAK3, 10 to 100 nM.

Take `C[S+]([O-])Cc1ccc(Nc2cc(NCc3cccc(F)c3)c(C(N)=O)nn2)cc1` (stereo not drawn) [Compound 105]: the half-maximal inhibitory concentration (IC50) lay in the range of 100 to 1000 nM at JAK1, 100 to 1000 nM on JAK2 and 10 to 100 nM at JAK3.

In the case of `CC(C)n1cc(Nc2cc(NCc3cccc(F)c3)c(C(N)=O)nn2)cn1` [Compound 106], the results for the half-inhibitory concentration (IC50) on JAK1, on JAK2 and at JAK3 were over 1000 nM, 100 to 1000 nM and 10 to 100 nM, respectively.

For the compound `NC(=O)c1nnc(Nc2ccc3c(c2)CS(=O)(=O)C3)cc1NCc1cccc(F)c1` [Compound 107], the results for the half-inhibitory concentration (IC50) on JAK1, on JAK2 and at JAK3 were over 1000 nM, 100 to 1000 nM and 10 to 100 nM, respectively.

Turning to `CS(=O)(=O)CCc1ccc(Nc2cc(NCc3cccc(F)c3)c(C(N)=O)nn2)cc1` [Compound 108], the half-inhibitory concentration (IC50) at JAK1 is over 1000 nM; on JAK2 it was 100 to 1000 nM; at JAK3, 10 to 100 nM.

As to `CCC(=O)N1CCN(c2ccc(Nc3cc(NCc4cccc5[nH]ccc45)c(C(N)=O)nn3)cc2)CC1` [Compound 110], the IC50 at JAK1 fell in the range of 10 to 100 nM; at JAK2, 10 to 100 nM; at JAK3, 1 to 10 nM.

For the compound `NC(=O)c1nnc(Nc2cnccn2)cc1NCc1cccc(-n2ccnc2)c1` [Compound 111], the results for the half-maximal inhibitory concentration (IC50) at JAK1, on JAK2 and on JAK3 were over 1000 nM, over 1000 nM and 100 to 1000 nM, respectively.

For `CC(C)n1cc(Nc2cc(NCc3cccc4ccsc34)c(C(N)=O)nn2)cn1` [Compound 112], the half-inhibitory concentration (IC50) on JAK1 lay within 100 to 1000 nM; at JAK2, 10 to 100 nM; on JAK3, 1 to 10 nM.

`CC(C)n1cc(Nc2cc(NCc3c(F)cccc3F)c(C(N)=O)nn2)cn1` [Compound 113]: the concentration for half-maximal inhibition (IC50) at JAK1 lay within 100 to 1000 nM; on JAK2 it was 10 to 100 nM; on JAK3, 1 to 10 nM.

As to `CC(C)n1cc(Nc2cc(NCc3cccc(F)c3F)c(C(N)=O)nn2)cn1` [Compound 114], the half-maximal inhibitory concentration (IC50) lay in the range of 100 to 1000 nM at JAK1, 100 to 1000 nM on JAK2 and 10 to 100 nM at JAK3.

For `NC(=O)c1nnc(Nc2cnn(C3CCCC3)c2)cc1NCc1cccc2ccsc12` [Compound 115], the IC50 is over 1000 nM on JAK1, 10 to 100 nM at JAK2 and 10 to 100 nM at JAK3.

In the case of `NC(=O)c1nnc(Nc2cnn(C3CCCC3)c2)cc1NCc1cccc(F)c1F` [Compound 116], the IC50 on JAK1 was over 1000 nM; at JAK2, 100 to 1000 nM; at JAK3, 10 to 100 nM.

With `NC(=O)c1nnc(Nc2cnn(CC3CC3)c2)cc1NCc1cccc2ccsc12` [Compound 117], the IC50 at JAK1 fell in the range of 100 to 1000 nM; at JAK2, 10 to 100 nM; on JAK3 it was 10 to 100 nM.

With `NC(=O)c1nnc(Nc2cnn(CC3CC3)c2)cc1NCc1cccc(F)c1F` [Compound 118], the half-maximal inhibitory concentration (IC50) lay in the range of 100 to 1000 nM at JAK1, 100 to 1000 nM on JAK2 and 10 to 100 nM at JAK3.

In the case of `NC(=O)c1nnc(Nc2cnn(CC3CC3)c2)cc1NCc1cccc(F)c1` [Compound 119], the concentration for half-maximal inhibition (IC50) at JAK1 was over 1000 nM; on JAK2 it was 100 to 1000 nM; at JAK3 it was 10 to 100 nM.

On to `CCn1cc(Nc2cc(NCc3cccc(F)c3F)c(C(N)=O)nn2)cn1` [Compound 120], for which the IC50 on JAK1 was over 1000 nM; on JAK2, 100 to 1000 nM; on JAK3, 10 to 100 nM.

As for `NC(=O)c1nnc(Nc2cnn(CC3CCOCC3)c2)cc1NCc1cccc2ccsc12` [Compound 121], the half-maximal inhibitory concentration (IC50) at JAK1 lay in the range of 100 to 1000 nM; at JAK2, 10 to 100 nM; on JAK3 it was 1 to 10 nM.

With `CCn1cc(Nc2cc(NCc3cccc4ccsc34)c(C(N)=O)nn2)cn1` [Compound 122], the figures for the IC50 on JAK1, on JAK2 and on JAK3 were 100 to 1000 nM, 10 to 100 nM and 1 to 10 nM, respectively.

Consider `CCn1cc(Nc2cc(NCc3cccc(F)c3)c(C(N)=O)nn2)cn1` [Compound 123], for which the values for the IC50 at JAK1, on JAK2 and on JAK3 were over 1000 nM, 100 to 1000 nM and 10 to 100 nM, respectively.

In the case of `NC(=O)c1nnc(Nc2cnn(CC3CCOCC3)c2)cc1NCc1cccc(F)c1F` [Compound 124], the IC50 on JAK1 was over 1000 nM; on JAK2, 100 to 1000 nM; on JAK3 it was 1 to 10 nM.

With `CC(=O)N1CCC(Cn2cc(Nc3cc(NCc4cccc5ccsc45)c(C(N)=O)nn3)cn2)CC1` [Compound 125], the concentration for half-maximal inhibition (IC50) at JAK1 was 100 to 1000 nM; on JAK2 it was 10 to 100 nM; on JAK3, 1 to 10 nM.

Take `CC(=O)N1CCC(Cn2cc(Nc3cc(NCc4cccc(F)c4F)c(C(N)=O)nn3)cn2)CC1` [Compound 126]: the results for the IC50 at JAK1, at JAK2 and on JAK3 were over 1000 nM, 100 to 1000 nM and 1 to 10 nM, respectively.

For the compound `CC(=O)N1CCC(Cn2cc(Nc3cc(NCc4cccc(F)c4)c(C(N)=O)nn3)cn2)CC1` [Compound 127], the concentration for half-maximal inhibition (IC50) is over 1000 nM at JAK1, 100 to 1000 nM at JAK2 and 10 to 100 nM at JAK3.

As to `CCC(=O)N1CCC(Cn2cc(Nc3cc(NCc4cccc5ccsc45)c(C(N)=O)nn3)cn2)CC1` [Compound 128], the concentration for half-maximal inhibition (IC50) lay within 100 to 1000 nM at JAK1, 10 to 100 nM at JAK2 and 1 to 10 nM on JAK3.

As to `CCC(=O)N1CCC(Cn2cc(Nc3cc(NCc4cccc(F)c4F)c(C(N)=O)nn3)cn2)CC1` [Compound 129], the IC50 at JAK1 is 100 to 1000 nM; at JAK2, 100 to 1000 nM; at JAK3 it was 1 to 10 nM.

Take `CCC(=O)N1CCC(Cn2cc(Nc3cc(NCc4cccc(F)c4)c(C(N)=O)nn3)cn2)CC1` [Compound 130]: the IC50 at JAK1 was over 1000 nM; at JAK2, 100 to 1000 nM; on JAK3 it was 10 to 100 nM.

For `CN(C)C(=O)Cn1cc(Nc2cc(NCc3cccc4ccsc34)c(C(N)=O)nn2)cn1` [Compound 131], the half-inhibitory concentration (IC50) at JAK1 lay in the range of 100 to 1000 nM; at JAK2 it was 100 to 1000 nM; at JAK3 it was 10 to 100 nM.

With `CS(=O)(=O)Cc1ccc(Nc2cc(NCc3cccc(-c4ccncc4)c3)c(C(N)=O)nn2)cc1` [Compound 132], the concentration for half-maximal inhibition (IC50) was over 1000 nM on JAK1, over 1000 nM at JAK2 and 10 to 100 nM on JAK3.

As for `CN(C)C(=O)N1CCC(Cn2cc(Nc3cc(NCc4cccc(F)c4F)c(C(N)=O)nn3)cn2)CC1` [Compound 133], the IC50 on JAK1 was over 1000 nM; at JAK2, 100 to 1000 nM; on JAK3, 1 to 10 nM.
